Target: T1, AR W741C (Homo sapiens, UniProt P10275, W742C)
T1 construct: expressed in transfected cells; host or cells: HepG2
T1 sequence (P10275 1-920 W742C): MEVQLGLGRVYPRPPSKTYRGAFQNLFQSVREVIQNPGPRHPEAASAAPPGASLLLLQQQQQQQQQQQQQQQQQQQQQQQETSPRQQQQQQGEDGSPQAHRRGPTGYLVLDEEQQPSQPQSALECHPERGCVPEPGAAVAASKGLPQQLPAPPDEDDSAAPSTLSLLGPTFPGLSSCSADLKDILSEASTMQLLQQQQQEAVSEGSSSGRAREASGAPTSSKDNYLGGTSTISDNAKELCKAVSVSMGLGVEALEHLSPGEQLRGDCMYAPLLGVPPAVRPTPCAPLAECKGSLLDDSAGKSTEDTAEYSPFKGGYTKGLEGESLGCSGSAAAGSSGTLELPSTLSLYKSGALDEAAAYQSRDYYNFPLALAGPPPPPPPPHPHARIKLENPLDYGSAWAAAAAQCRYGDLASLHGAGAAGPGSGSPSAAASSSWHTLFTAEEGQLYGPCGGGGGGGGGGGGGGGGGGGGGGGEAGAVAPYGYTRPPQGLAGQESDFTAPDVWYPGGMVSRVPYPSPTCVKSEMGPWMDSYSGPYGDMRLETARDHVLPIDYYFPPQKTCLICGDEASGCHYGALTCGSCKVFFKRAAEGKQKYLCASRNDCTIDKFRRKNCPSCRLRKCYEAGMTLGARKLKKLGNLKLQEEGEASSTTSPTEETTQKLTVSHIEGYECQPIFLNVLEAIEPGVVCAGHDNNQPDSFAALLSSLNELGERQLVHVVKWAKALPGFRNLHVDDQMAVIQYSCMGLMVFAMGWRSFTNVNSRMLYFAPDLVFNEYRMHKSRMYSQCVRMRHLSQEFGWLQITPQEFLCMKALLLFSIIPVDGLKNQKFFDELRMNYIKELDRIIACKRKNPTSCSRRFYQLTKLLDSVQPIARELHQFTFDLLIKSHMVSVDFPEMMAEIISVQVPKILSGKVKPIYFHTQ
Experiment: Luciferase transcriptional reporter assay, mutant AR, HepG2, antagonist mode
Assay type: cell-based
Details: HepG2, 90 pM R1881, 48 hours; * denotes incomplete inhibition (otherwise 100%); read-out: Antagonism; IC50, AR construct W741C
Description: HepG2 cells were maintained in EMEM supplemented with 10% FBS. One day before transfection, the media was changed to EMEM with 10% CSS. T-150 flasks were transiently transfected using 120 μL Lipofectamine 2000 (Life Technologies), 30 μg mutant cDNA (expression vector)—mutant cDNA tested were L701H, T877A, W741C and H874Y—and 40 μg 4×ARE-Luciferase (reporter vector) in OptiMEM and the flasks were incubated overnight. Cells were then trypsinized, counted and resuspended at 500,000 cells/mL. For agonist mode, the compounds of Formula (I) are serially diluted and 50 μL of the compound added per well. 50 μL of the cells are added to each well and incubated for 48 hours. For antagonist mode, a final concentration of 90 pM R1881 was added to the diluted compounds and incubated for 48 hours. The plates were then assayed using SteadyGlo and read on the Envision. Percent Stimulation and Inhibition is determined and analyzed using GraphPad Prism.
All values are calculated relative to the activity of R1881 induced androgen receptor activity (n≧3).

IC50: 5.79 µM
SMILES: N#Cc1ncc(N2C(=O)C3(CCC3)N(c3ccc(OC4CCNCC4)cc3)C2=S)cc1C(F)(F)F [Cpd 35, 5-[5-oxo-8-[4-(4-piperidyloxy)phenyl]-7-thioxo-6,8-diazaspiro[3.4]octan-6-yl]-3-(trifluoromethyl)pyridine-2-carbonitrile]
